The source made the active and inactive calls. The calls are words filed in the database; no cut-off is given here.
Tests used:
[1] = system: PC-3; assay: Induction of apoptosis in human PC3 cells harboring p53 mutant assessed as increase in cleaved caspase3 at 2 times IC50 after 48 hrs by Hoechst staining based assay; assay type: functional, cell-based
[2] = system: Huh-7; assay: Cell cycle arrest in human HuH7 cells assessed as accumulation at M phase by Hoechst staining based fluorescence assay; assay type: functional
[3] = system: HaCaT; assay: Cell cycle arrest in human HaCaT cells assessed as accumulation at G1/S phase by Hoechst staining based fluorescence assay; assay type: functional
[4] = system: Huh-7; assay: Cell cycle arrest in human HuH7 cells assessed as accumulation at G1/S phase by Hoechst staining based fluorescence assay; assay type: functional
[5] = system: PC-3; assay: Cell cycle arrest in human PC3 cells assessed as accumulation at G1/S phase by Hoechst staining based fluorescence assay; assay type: functional
[6] = system: HCT-116; assay: Cell cycle arrest in human HCT116 cells harboring wild-type p53 assessed as accumulation at S phase at 12 uM measured after 48 hrs by Hoechst/BrdU staining based fluorescence assay (reference value: 68%); assay type: functional
[7] = system: HCT-116; assay: Cell cycle arrest in human HCT116 cells harboring wild-type p53 assessed as accumulation at M phase at 24 uM measured after 48 hrs by Hoechst staining based fluorescence assay (reference value: 2.3 to […]); assay type: functional
[8] = system: HCT-116; assay: Cell cycle arrest in human HCT116 cells harboring wild-type p53 assessed as accumulation at M phase at 12 uM measured after 48 hrs by Hoechst staining based fluorescence assay (reference value: 2.3 to […]); assay type: functional
[9] = system: HCT-116; assay: Cell cycle arrest in human HCT116 cells harboring wild-type p53 assessed as accumulation at S phase at 24 uM measured after 48 hrs by Hoechst/BrdU staining based fluorescence assay (reference value: 68%); assay type: functional

SMILES | Activity [1] | Activity [2] | also measured
COc1cc(OC)c(C(=O)/C=C/c2ccc(F)cc2)c(OC)c1 | Active | Active | –
COc1cc(O)c(C(=O)/C=C/c2ccccc2OC)c(OC)c1 | Active | – | –
COc1cc(O)c(C(=O)/C=C/c2ccccc2)c(OC)c1 [FLAVOKAWAIN B] | Active | – | Activity [3]: Active; Activity [4]: Active; Activity [5]: Active
COc1cc(O)c(C(=O)/C=C/c2ccc(F)cc2)c(OC)c1 | Active | – | –
COc1cc(OC)c(C(=O)/C=C/c2ccc(Br)cc2)c(OC)c1 | Active | Active | –
COc1cc(OC)c(C(=O)/C=C/c2ccccc2SC)c(OC)c1 | Active | Active | –
COc1cc(O)c(C(=O)/C=C/c2ccccc2SC)c(OC)c1 | Active | Active | –
COc1cc(OC)c(C(=O)/C=C/c2ccccc2)c(OC)c1 | Active | – | –
COc1cccc(/C=C/C(=O)c2c(OC)cc(OC)cc2OC)c1 | Active | Active | Activity [6]: 20%; Activity [7]: 1.2%; Activity [8]: 4.5%; Activity [9]: 0.6%
COc1cccc(/C=C/C(=O)c2c(O)cc(OC)cc2OC)c1 | Active | – | Activity [3]: Active; Activity [4]: Active
